Experimental findings from patent publication EP4438030A1, “TERNARY ANTI-SPOT COMBINATION TO LIGHTEN SKIN” (E Grau Active Cosmetics, S.L.U., priority 2023, dated 2024) are described below.

The test has as its system Normal human epidermal melanocytes. To be noted: melanocytes irradiated with ultraviolet light (2.5 J/cm2), 96 hours; mixture 0.0003% hydroxytyrosol, 0.00001% maslinic acid, 0.001% vitamin C (w/w); hydroquinone 10-8% (w/w).

Structures are written as SMILES.

Protocol: Normal human epidermal melanocytes were cultured in 48-well plates at a density of 2×10^4 cells/well overnight in a CO2 incubator at 37°C in the culture medium called Melanocyte Growth Medium (PromoCell, R.F.A.). The culture medium was then removed and replaced with fresh medium, and the cells were cultured for 96 hours in the presence of a mixture containing 0.0003% (w/w) of hydroxytyrosol, 0.00001% (w/w) of maslinic acid and 0.001% (w/w) of vitamin C. […] To mimic exposure to sunlight, the cells were irradiated with ultraviolet light for the last 48 hours in 4 cycles lasting 15 minutes. Irradiation measurements indicated a total dose of 2.5 J/cm2. Melanin was extracted by adding 1 M sodium hydroxide and incubating at 60°C for 1 h.
In parallel, a cell viability assay was carried out using 3-(4,5-dimethylthiazol-2-yl)-2,5-diphenyltetrazolium bromide dye (MTT Assay) to normalise melanin values to cell levels and thus correct possible interferences due to small variations in the number of cells in each well.

Turning to `Oc1ccc(O)cc1` [hydroquinone], the “reduction of melanin production” value turned out to be 42%.
